Like-named read-outs stand apart in the source and are kept apart here.
What was measured:
[1] = no Na CPP
Description: Comparative in vitro experiments were carried out using a Seeded Crystal Growth Inhibition Assay. This assay involved the treatment of synthetic hydroxyapatite with the anti-tartar agent to be tested. The hydroxyapatite, treated with the anti-tartar agent was incubated at 37°C in a calcifying solution made up of calcium and phosphate at 1.5 mM and 4.5 mM respectively, pH 7.4. The samples were filtered to remove any calcium phosphate crystals and the free calcium in the filtrate was measured using Atomic Absorption Spectroscopy. The percent inhibition was calculated as follows: [formula]
The % inhibition is a measure of the degree of inhibition of calcium phosphate precipitation by the anti-tartar agent. The anti-tartar agents tested were: 1) tetrasodium pyrophosphate, Na₄P₂O₇ and 2) combinations of Na₄P₂O₇ and sodium caseinphosphopeptide, Na CPP, prepared as described above, which is a mixture rich in phosphopeptides of SEQ ID NO:1 and SEQ ID NO:2.
Experiments were carried out using a Seeded Crystal Growth Inhibition Assay described in Example 1. % inhibition was measured for NaCPP/Zinc sulphate mixtures.

[2] = system: Streptococcus sobrinus 6715-14; conditions: 1.5% pyrophosphate anion; versus deionized water control
Description: A Microbial Mineralization Assay was carried out. Standard glass rods (3mm x 50mm) were attached to a circular piece of rubber and attached to a vial cap. The surface of the rods was etched. The rods were placed in a growth medium containing sucrose and Streptococcus sobrinus 6715-14. The microbe was grown on the rods for 24 hours at 37°C. The rods were then placed into a fresh growth medium for another 24 hours at 37°C. The rods were then taken out and treated with the anti-tartar agent to be tested. Treatment with only deionized water was used as control. The rods were then placed in a calcifying solution made up of a calcium and phosphate at levels of 1.5 mM and 5.0 mM respectively, at pH 7.4, supplemented with human saliva (about 25%). Six hours later, the treatment with the anti-tartar agent was repeated, and glass rods were placed in a calcifying solution. The procedure was continued for the next three days.
The rods were then removed from the calcifying solution, rinsed with water and placed in 0.6 N HCl solution. The solution containing the rods was heated at 60°C for 2 hours to dissolve calcified salts. The resulting acidic solution was filtered over 0.8 µm nylon membrane. The level of mineral formation was assessed via calcium and phosphorus analysis. The results were calculated by comparing the % reduction of mineral formation to that of the control.

SMILES | % Inhibition ([1]; Na4 P2 O7 0.1 mM) [%] | % Inhibition ([1]; Na4 P2 O7 0.15 mM) [%] | % Inhibition ([1]; Na4 P2 O7 0.2 mM) [%] | % reduction of mineral formation [2] [%]
O=P([O-])([O-])OP(=O)([O-])[O-].[Na+].[Na+].[Na+].[Na+] [Na4 P2 O7, tetrasodium pyrophosphate] | 14 | 24 | 54 | 
O=P(O)(O)OP(=O)(O)O [pyrophosphate anion] |  |  |  | 32

— EP0528458A1, “Method for controlling dental tartar using phosphopeptides and compositions for use therein” (UNILEVER N.V., priority 1991, dated 1993)
